In patent publication US12516295B2, “Generation of pancreatic progenitor cells and beta cells from human pluripotent stem cells” (The Penn State Research Foundation, priority 2018, dated 2026):

Legend:
H1 hESCs = test: Growth-factor-free differentiation of hPSCs to SOX17+ DE cells, SOX17 expression by flow cytometry; type: cell-based, human; details: for effect on DE differentiation (result in words): H1 hESCs differentiated with CH, CH+DM or CH+A83-01, day 4 SOX17 by flow cytometry (FIG. 1F); for percentage of cells expressing SOX17: flow cytometry (FIG. 1C); for SOX17+ cells: H1 hESCs, dynamics (FIG. 1E; CH in presence or absence of DM)
Experimental: (§1) FIG. 1. Growth-factor-free differentiation of SOX17+ DE cells from hPSCs via CH and DM treatment. (A) Human 19-9-11 iPSCs were treated with 6 μM CH at day 0. After treatment, cells were collected from 3 to 21 hours (T) and RNA-seq was performed. The bars for each set from left to right are: T0, T3, T6, T9, T12, T15, T18, T21. (B) Schematic of protocol for defined, growth-factor-free differentiation of hPSCs to SOX17+ cells via treatment with CH and DM. (C-D) H1 hESCs were cultured as indicated in 2B with 1 μM DM plus different CH concentration, ranging from 2 to 10 μM. (C) On day 4 of differentiation, cells were analyzed for SOX17 expression by flow cytometry. (D) Cells were immunostained with a SOX17 antibody on day 4 of differentiation under 6 μM CH plus 1 μM DM treatment. (E) H1 hESCs were differentiated with CH in the presence or absence of DM. From day 1 to day 4, cells were analyzed for SOX17 expression by flow cytometry. (F) H1 hESCs were differentiated with CH, CH plus DM or CH plus A83-01. On day 4 of differentiation, cells were analyzed for SOX17 expression by flow cytometry.
Stage 1: On day 0, medium was changed with RPMI supplemented with 1 μM Dorsomorphin (DM) and 2-10 μM CHIR99021(CH). At day 1-4, medium was changed with RPMI supplemented with B-27 without insulin.
Cells were dissociated into single cells with Accutase for 10 min and then fixed with 1% paraformaldehyde for 30 min at room temperature and stained with primary and secondary antibodies in PBS plus 0.1% Triton X-100 and 0.5% BSA. Data were collected on a BD ACCURI C6 PLUS flow cytometer (BD Biosciences) and analyzed using FlowJo 10. FACS gating was based on the corresponding isotype antibody control.
Here we describe a differentiation protocol without using any growth factors. We first initiated DE differentiation by treating hPSCs with CH+DM. To determine optimal CH concentration for DE differentiation, H1 cells were treated by 2 to 10 μM CH in RPMI for 24 hours, followed by 3 days culture in RPMI with 2% B-27 minus insulin supplement. We analyzed the percentage of SOX17+ cells on day 4 of differentiation via flow cytometry. […] The optimal DE differentiation was achieved when hPSCs were treated by 4 or 6 μM CH (FIG. 1C). On day 4, 85% of cells expressing SOX17 when cells were treated with 6 μM CH plus 1 μM DM, whereas the percentage of cells expressing SOX17 decreased to 20% when treated with 10 μM CH plus 1 μM DM (FIG. 1C). […] Next, the dynamics of DE differentiation was investigated by analyzing SOX17 expression from day 1 to day 4. During differentiation, SOX17+ cells increased from 0% on day 1 to 78% on day 4, indicating DE was gradually developed (FIG. 1E). Furthermore, to evaluate whether our novel DE differentiation protocol depends on endogenous TGFbeta pathway, we differentiated H1 hESCs with CH, CH+DM, and CH+A83-01 (a TGFbeta inhibitor).

19-9-11 iPSCs = test: RNA-seq expression profile during CH induced differentiation; type: cell-based, human; details: 6 μM CH
Experimental: as §1
To understand RNA expression profile during CH induced differentiation, we collected cells following CH treatment every three hours for a total of eight different time points after differentiation (FIG. 1A).

Row | SMILES | effect on DE differentiation (result in words) (H1 hESCs) | Nodal expression (19-9-11 iPSCs; 21 hours after treatment, RNA-seq) | RNA expression of several components in the TGF-β signaling pathway (19-9-11 iPSCs; samples every three hours over 21 hours, RNA-seq (FIG. 1A)) | Sox17+ cells generated (H1 hESCs; 10 μM CH treatment (discussion)) | Sox17+ cells generated (H1 hESCs; 4 or 6 μM CH treatment (discussion)) | DE differentiation (result in words) (H1 hESCs; H1 cells, 2 to 10 μM CH in RPMI for 24 hours, SOX17+ cells on day 4) | percentage of cells expressing SOX17 (H1 hESCs; H1 cells, day 4, 6 μM CH plus 1 μM DM) | percentage of cells expressing SOX17 (H1 hESCs; H1 cells, day 4, 10 μM CH plus 1 μM DM) | SOX17+ cells (H1 hESCs; day 1 of differentiation) | SOX17+ cells (H1 hESCs; day 4 of differentiation)
1 | Cc1cccc(-c2nn(C(=S)Nc3ccccc3)cc2-c2ccnc3ccccc23)n1 [A83-01] | abolished DE differentiation | – | – | – | – | – | – | – | – | –
2 | Cc1cnc(-c2cnc(NCCNc3ccc(C#N)cn3)nc2-c2ccc(Cl)cc2Cl)[nH]1 [CH, 6-[[2-[[4-(2,4-Dichlorophenyl)-5-(5-methyl-1H-imidazol-2-yl)-2-pyrimidinyl]amino]ethyl]amino]-3-pyridinecarbonitrile] | – | upregulated | increased | 6% | more than 74% | induced DE differentiation in a dose-dependent manner | 85% | 20% | 0% | 78%
3 | c1cc(-c2cnn3cc(-c4ccc(OCCN5CCCCC5)cc4)cnc23)ccn1 [DM, 6-[4-(2-Piperidin-1-ylethoxy)phenyl]-3-pyridin-4-ylpyrazolo[1,5-a]pyrimidine] | promoted this differentiation | – | – | – | – | – | – | – | – | –
